Assay results reported in ChEMBL document CHEMBL3044725, “Structure-based molecular design, synthesis, and in vivo anti-inflammatory activity of pyridazinone derivatives as nonclassic COX-2 inhibitors” (2010).

Key:
Type in all cases: functional
Conditions in all cases: route subcutaneous
[1] = system: Rattus norvegicus; experiment: Anti-inflammatory activity in Rattus norvegicus albino (rat) assessed as reduction in carrageenan-induced paw volume at 5 mg/kg, sc pretreated 1 hr before carrageenan challenge measured after 1 hr by plethysmometer (reference value: 1.95 +/- 0.03 to 2 ml)
[2] = system: Rattus norvegicus; experiment: Anti-inflammatory activity in Rattus norvegicus albino (rat) assessed as reduction in carrageenan-induced paw volume at 5 mg/kg, sc pretreated 3 hr before carrageenan challenge measured after 1 hr by plethysmometer (reference value: 1.95 +/- 0.03 to 2 ml)
[3] = system: Rattus norvegicus; experiment: Anti-inflammatory activity in Rattus norvegicus albino (rat) assessed as reduction in carrageenan-induced paw volume at 5 mg/kg, sc pretreated 4 hr before carrageenan challenge measured after 1 hr by plethysmometer (reference value: 1.95 +/- 0.03 to 2 ml)
[4] = system: Rattus norvegicus; experiment: Anti-inflammatory activity in Rattus norvegicus albino (rat) assessed as reduction in carrageenan-induced paw volume at 5 mg/kg, sc pretreated 2 hr before carrageenan challenge measured after 1 hr by plethysmometer (reference value: 1.95 +/- 0.03 to 2 ml)

Structure (SMILES)	Activity [1] [mL]	Activity [2] [mL]	Activity [3] [mL]	Activity [4] [mL]
O=c1ccc(-c2nc3ccccc3nc2-c2ccccc2)n[nH]1	1.97	1	0.38	1.37
O=c1ccc(-c2nc3ccccc3nc2-c2ccc(Cl)cc2)n[nH]1	1.48	0.55	0.03	0.95
COc1ccc(-c2nc3ccccc3nc2-c2ccc(=O)[nH]n2)cc1	1.55	1.38	1.27	1.5
O=c1ccc(C2Nc3ccccc3NC2c2ccccc2)n[nH]1 (stereo not drawn)	2	2	2.07	2.02
O=c1ccc(C2Nc3ccccc3NC2c2ccc(Cl)cc2)n[nH]1 (stereo not drawn)	1.93	2	2.12	1.93
COc1ccc(C2Nc3ccccc3NC2c2ccc(=O)[nH]n2)cc1 (stereo not drawn)	1.58	1.38	1.32	1.42
O=C(O)Cc1ccccc1Nc1c(Cl)cccc1Cl [DICLOFENAC]	0.92	0.3	0.03	0.57
